Laboratory results taken from patent US4487716A, “N-(1-Carboxy-3-phenylpropyl)-dipeptides” (American Home Products Corporation, priority 1982, dated 1984).

Assays:
[1] = system: male spontaneously hypertensive rats; assay: Systolic blood pressure in male spontaneously hypertensive rats after oral administration; format: in vivo; conditions: groups of four rats; for Blood Pressure: systolic; for effect on systolic blood pressure (in words): oral administration
Experimental: Blood pressures were read prior to drug administration and at 1.5, 4 and 24 hours thereafter using a Decker Caudal Plethysmograph.

[2] = target: T1, angiotensin converting enzyme (Oryctolagus cuniculus, UniProt P12822); assay: Inhibition of hippuryl-L-histidyl-L-leucine hydrolysis by angiotensin converting enzyme; format: biochemical; conditions: rabbit lung ACE, substrate HHL 5 mM, 37° C., 30 min
T1 construct: A crude angiotensin converting enzyme supernatant is obtained by blending 1 gm. of rabbit lung acetone powder; tissue PelFreez Biologicals; host or cells: rabbit lung acetone powder
T1 sequence (P12822 34-1310): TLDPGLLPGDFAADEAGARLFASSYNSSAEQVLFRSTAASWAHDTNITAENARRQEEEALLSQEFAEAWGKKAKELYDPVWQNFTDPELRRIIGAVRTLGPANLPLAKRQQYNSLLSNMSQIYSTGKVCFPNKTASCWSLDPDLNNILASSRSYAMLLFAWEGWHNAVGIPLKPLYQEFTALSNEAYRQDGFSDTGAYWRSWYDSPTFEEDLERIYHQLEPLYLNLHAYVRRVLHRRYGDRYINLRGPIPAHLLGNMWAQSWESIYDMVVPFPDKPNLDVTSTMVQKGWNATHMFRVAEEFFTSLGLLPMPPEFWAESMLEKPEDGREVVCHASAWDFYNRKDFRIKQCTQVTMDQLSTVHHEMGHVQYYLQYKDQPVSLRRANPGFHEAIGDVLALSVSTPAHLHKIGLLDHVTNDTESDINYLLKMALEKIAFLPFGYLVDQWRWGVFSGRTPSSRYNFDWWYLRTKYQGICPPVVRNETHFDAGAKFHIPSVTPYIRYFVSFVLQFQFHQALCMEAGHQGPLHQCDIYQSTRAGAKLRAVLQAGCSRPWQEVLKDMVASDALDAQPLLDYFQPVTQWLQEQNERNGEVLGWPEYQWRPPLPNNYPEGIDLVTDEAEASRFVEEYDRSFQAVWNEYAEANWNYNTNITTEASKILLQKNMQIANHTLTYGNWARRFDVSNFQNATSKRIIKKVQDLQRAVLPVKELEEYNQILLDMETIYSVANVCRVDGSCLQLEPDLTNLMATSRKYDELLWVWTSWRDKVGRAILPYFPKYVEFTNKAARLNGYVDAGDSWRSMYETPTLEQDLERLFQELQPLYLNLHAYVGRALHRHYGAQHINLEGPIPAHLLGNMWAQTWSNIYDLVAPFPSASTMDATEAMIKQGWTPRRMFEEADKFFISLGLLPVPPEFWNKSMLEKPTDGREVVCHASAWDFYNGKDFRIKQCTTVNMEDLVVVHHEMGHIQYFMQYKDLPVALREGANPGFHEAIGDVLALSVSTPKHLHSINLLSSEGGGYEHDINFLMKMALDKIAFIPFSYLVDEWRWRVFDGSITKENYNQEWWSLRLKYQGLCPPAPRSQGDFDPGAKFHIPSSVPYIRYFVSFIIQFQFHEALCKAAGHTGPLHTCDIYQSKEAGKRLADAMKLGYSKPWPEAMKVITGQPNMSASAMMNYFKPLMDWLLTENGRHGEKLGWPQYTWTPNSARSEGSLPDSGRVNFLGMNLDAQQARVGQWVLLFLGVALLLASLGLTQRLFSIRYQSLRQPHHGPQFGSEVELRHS
Experimental: The activity of the compounds of this invention was established by incubation of hippuryl-L-histidyl-L-leucine at 37° C. with angiotensin converting enzyme by the following procedure:
A crude angiotensin converting enzyme supernatant is obtained by blending 1 gm. of rabbit lung acetone powder (PelFreez Biologicals) with 35 ml. of 50 mM (buffered) potassium phosphate, pH 8.3 and centrifuging for 45 min. at 40,000×g.
The specific angiotensin converting enzyme substrate Hippuryl-L-histidyl-L-leucine (HHL-Sigma Chem. Co.) is prepared at 5 mM in 200 mM potassium phosphate buffer containing 757 mM NaCl at pH 8.3.
Incubation for the assay of HHL hydrolysis by angiotensin converting enzyme is carried out in a 37° C. gyrorotary incubator in disposable 13×100 mm tubes. Each 0.25 ml assay mixture contains the following components at the final concentrations: potassium phosphate buffer, 100 mM; NaCl, 300 mM; HHL, 5 mM; and enzyme 0.15 ml (10 mU approx.) added last to initiate the reaction. Zero time controls have 0.25 ml of 2N HCl added before the enzyme. The timed reactions are terminated with acid at 30 min. similarly and the hippuric acid freed from substrate is extracted into 1.5 ml of ethyl acetate layer is transferred to a clean tube. […]
The hippuric acid is resuspended in 1.0 ml of water, the absorbance at […] is determined, and the amount present is calculated from a standard curve. […]

Row | IC50 [2] | Compound | Blood Pressure ([1]; 50 mg/kg PO, 1.5 hours) | Blood Pressure ([1]; 50 mg/kg PO, 4 hours) | Blood Pressure ([1]; 50 mg/kg PO, 24 hours) | effect on systolic blood pressure (in words) [1] | Blood Pressure ([1]; 150 mg/kg PO, 1.5 hours) | Blood Pressure ([1]; 150 mg/kg PO, 4 hours)
1 |  | N^α -(DL-1-carboxy-3-phenylpropyl)-L-lysyl-N-p-methoxyphenylglycine [Example 3] | 183 mmHg | 181 mmHg | 204 mmHg | reduce systolic blood pressure |  | 
2 | 146 nM | NCCCC[C@H](NC(CCc1ccccc1)C(=O)O)C(=O)N(CC(=O)O)c1ccccc1 (mixture of isomers) [Example 2, N^α -(DL-1-carboxy-3-phenylpropyl)-L-lysyl-N-phenylglycine] |  |  |  | reduce systolic blood pressure | 196 mmHg | 194 mmHg
